Data as given in patent US20260035750A1, “TRANSCRIPTIONAL REGULATORS OF THE TEAD FAMILY” (Sanofi, priority 2022, published 2026).
“Also recorded” adds a separate entry of the source.

Experiments:
[1] = tested on: NCI-H226 cells; test: In vivo efficacy in subcutaneous NCI-H226 xenografts in SCID mice; settings: NCI-H226 xenograft
Experimental: Female CB17/Icr-Prkdc^scid/IcrIcoCrl mice (6-8 weeks old) were bred at Charles River (Les Oncins, France), housed in Sanofi AAALAC accredited animal facilities, and were provided with irradiated food and filtered water ad libitum.
(§1) In vivo efficacy studies of the K-975 compound were performed in SCID mice inoculated subcutaneously into the right flank with 3×10^6 MSTO-211H or NCI-H226 cells. Mice bearing around 200 mm3 subcutaneous MSTO-211H tumors or 150 mm3 subcutaneous NCI-H226 tumors were randomly assigned to […] of 8 mice/group and treated with either vehicle or K-975 compound twice daily at 30, 100, and 200 mg/kg for 18 consecutive days. Tumor perpendicular diameters were measured twice a week with a caliper, and tumor volume (V) was calculated according to the following equation: V (mm3)=(d2 (mm2)×D (mm))/2, where d is the smallest, and D the largest perpendicular tumor diameters.
The same type of events was observed when SCID mice implanted with malignant mesothelioma parental NCI-H226 cells were treated with 200 mg/kg BID of the benchmark TEAD-inhibitor K-975 (Kaneda A et al. Am J Cancer Res. 2020; 10(12):4399-4415) for 17 consecutive days (FIG. 5). […] The TEAD-500 score correlates, therefore, with tumor behavior under treatment and can be used as a marker of the pharmacodynamics or efficacy of a drug.

[2] = tested on: CYR61; test: CYR61 (CCN1) marker of TEAD activity, RNA and protein (ELISA) level, in NCI-H226 cells; assay type: cell-based, human; settings: NCI-H226 cells in vitro, treated for 24 hours
Experimental: The latter protein markers were measured by ELISA assays. Cell lysates were diluted 1/500 in cell lysis buffer. A minimum of four biologic replicates were analyzed for each model. In the reading plate, standards and samples are run in duplicate. hCYR61 was assessed using the human Cyr61 Quantikine™ Colorimetric Sandwich ELISA Kit (R&D Systems, Minneapolis, MN). Diluted lysates were processed and analyzed as described in the manufacturer's instructions. Absorbance values were read using a microplate reader set to 450 nm.
So did the RNA and protein levels of the classical secreted marker of Hippo pathway activity, CYR61 (FIG. 3C).

[3] = tested on: TEAD-dependent transcription; test: TEAD-500 score as pharmacodynamic marker in NCI-H226 xenograft tumors; assay type: in vivo; settings: SCID mice, 200 mg/kg BID, in 24 h, sufficient for tumor regression
Experimental: (§2) TEAD-dependent transcription was scored in single samples as the difference Rp-Rn, where Rp is the mean fractional rank of the positive TEAD-effectors, and Rn, that of the negative effectors.
as §1
Fresh tumors were preserved in RNAlater (Thermo Fisher) and frozen at […]. Copurification of miRNA and total RNA was performed using a miRNeasy Mini Kit (QIAGEN, 217004). The RNA concentration and purity were evaluated with an ND-1000 spectrophotometer (NanoDrop, Thermo Fisher). Quality metrics are the RNA Integrity Number (RIN) and DV200 value (% of RNA fragments with a length≥200 nt). 100 ng total RNA per sample was used as input material for the library preparation. […]

[4] = tested on: TEAD; test: TEAD-500 score (TEAD-dependent transcription) in NCI-H226 cells grown in vitro; assay type: cell-based, human; settings: NCI-H226 malignant mesothelioma cells in vitro, treated for 24 hours
Source text: as §2
We considered the most abundant transcript of a gene as the representative of the expression of the gene. We, therefore, retain the expression level of the major transcript (maximum level-value per gene and sample, level values may be expression-array signals, RNA sequencing counts, fragments per kilobase per million counts (FPKM), transcripts per million (TPM), or whatever other metric is conveniently used) and discarded the values of all other transcripts. The maximum expression levels of the genes were transformed into fractional ranks by dividing with the maximum expression value of all genes (most abundant gene) observed within a sample. No other normalization is required.
All cell lines were grown at 37° C. under five percent CO2. MSTO-211H (#CRL-2081), NCI-H226 (#CRL-5826), NCI-H2052 (#CRL-5915), NCI-H28 (#CRL-5820), and HCT116 (#CCL-247) were purchased from the American Type Culture Collection (ATCC, Manassas, VA, USA) and cultured according to supplier's recommendation. […]
Fresh tumors were preserved in RNAlater (Thermo Fisher) and frozen at […]. […] The RNA concentration and purity were evaluated with an ND-1000 spectrophotometer (NanoDrop, Thermo Fisher). […]

Compound: C=CC(=O)Nc1ccc(C)c(Oc2ccc(Cl)cc2)c1 [K-975]
- tumor behavior under treatment ([1]; 30 mg/kg BID): inactive
- tumor behavior under treatment ([1]; 100 mg/kg BID): almost tumor stasis
- ΔT/ΔC ([1]; 100 mg/kg BID): 12
- tumor behavior under treatment ([1]; 200 mg/kg BID, 17 consecutive days): tumor regression
- RNA level of CYR61 (CCN1) [2]: inhibition; also recorded: regressed in a dose-dependent manner
- protein level of CYR61 (CCN1) [2]: inhibition; also recorded: regressed in a dose-dependent manner
- inhibition of the TEAD-dependent transcription (TEAD-500 score) [3]: 30-40%
- TEAD-500 score [4]: Dose-dependent regression; also recorded: regressed in a dose-dependent manner
